Read-outs that look alike come from different tables or passages of the source.
Key:
[1] = molecular target: T1, PSMA (Homo sapiens, UniProt Q04609); assay: cell-based competitive assay on LNCaP cells (PSMA affinity, IC50); format: binding; details: 45 min, 68Ga-labeled PSMA reference compound
T1 construct: PSMA-positive LNCaP cells from Sigma-Aldrich; host or cells: LNCaP cells
Text: Using a cell-based assay, the affinity of the KuE targeting vector with a lipophilic linker—analogously to PSMA-617—and with a squaric acid linker was examined using the compounds NH2.DOTAGA.KuE-617 and NH2.DOTAGA.QS.KuE (structural formulae (8) and (10) in scheme 32).
For the assay, LNCaP cells were pipetted into multiwell plates (Merck Millipore Multiscreen™). To the compounds to be analyzed, in increasing concentrations, was in each case added a defined amount or concentration of the reference compound ^68Ga[Ga]PSMA-with known Kdvalue, and the mixture was incubated in the wells with the LNCaP cells for 45 min. After washing several times, the cell-bound activity was determined.
In order to determine non-specific binding, an excess of the PSMA inhibitor 2-PMPA (2-(phosphonomethyl)[…]) was additionally added to all compounds, and they were subjected to the same LNCaP assay-as described above.

[2] = affinity for hydroxyapatite (HAP) of 177Lu-labeled compounds; format: binding; details: ordinary HAP, 1 h room temperature
Protocol: Calcium-containing crystalline hydroxyapatite is an essential component of mammalian bones and is suitable as a model substrate for the in vitro study of bisphosphonate accumulation in healthy bone tissue and bone metastases. […] In contrast, […] is found to have an HAP-enriched fraction of only 1.2%. In order to determine selectivity, accumulation on HAP previously treated with excess pamidronate was additionally measured.
Hydroxyapatite (20 mg) is incubated in saline (1 ml) for 24 h. 50 μl of the radiotracer [^177Lu]Lu-DOTA-L-Lys(SA.Pam)-KuE-617 (5 MBq) or [^177Lu]Lu-PSMA-617 (5 MBq) is added. Each suspension is vortexed with a vortex mixer for 20 s and incubated at room temperature for 1 h. […] The radioactivity of the liquids and HAP-containing supernatants obtained is measured in each case with a curiemeter (Isomed 2010 activimeter, MED Nuclear-Medizintechnik Dresden GmbH). The binding of [^177Lu]Lu-DOTA-L-Lys(SA.Pam)-KuE-617 and [^177Lu]Lu-PSMA-617 is determined as a percentage of the activity absorbed on HAP. As a reference, the HAP binding of free Lu-177 is measured in an analogous manner. […] For this purpose, HAP (20 mg) in saline solution (1 ml) is incubated with pamidronate (100 mg) and the respective activities of [^177Lu]Lu-DOTA-L-Lys(SA.Pam)-KuE-617 and free Lu-177 are determined.

[3] = lipophilicity, partition in n-octanol and PBS; format: physicochemical; details: pH 7.4
Protocol: The lipophilicity of […] is determined by determining the partition equilibrium of the compound in a mixture of n-octanol and PBS.
LogD7.4 of the respective compound is determined via the partition coefficient in n-octanol and PBS. The labeling solution is adjusted to pH 7.4 and 5 MBq is diluted in 700 μl of n-octanol and 700 μl of PBS. It is shaken at 1500 rpm for 2 min and then centrifuged. 400 μl of the n-octanol phase and 400 μl of the PBS phase were each transferred to a new Eppendorf tube. 3-6 μl is then pipetted onto a TLC plate and analyzed using a phosphor imager. The logD7.4 is calculated based on the ratio of the activities of the two phases. The measurement of each phase is also repeated twice more with the sample of higher activity, such that three logD7.4 values can be obtained and an average can be calculated.

[4] = molecular target: T1, PSMA; assay: competitive radioligand assay on PSMA-positive LNCaP cells (Ki); format: binding
Protocol: By means of comparative radioligand assays, binding affinity for PSMA is determined for the radiotracer or labeling precursor DOTA.L-Lys(SA.Pam)KuE-617 and reference structures. The Ki-value for [^natLu]Lu-DOTA.L-Lys(SA.Pam)KuE-617 corresponds roughly to the value for the labeling precursor DOTA.L-Lys(SA.Pam) KuE-617. […] Compared to DOTA.L-Lys.KuE-617—corresponding to structural formula (14) in scheme 31—the Ki of [^natLu]Lu-DOTA.L-Lys(SA.Pam)KuE-617 is greater by a factor of about 2. It can be seen from this that the squaric acid-pamidronate group reduces affinity for PSMA.
Non-active (cold) [natLu]Lu complexes are prepared by shaking a solution containing the labeling precursor DOTA-L-Lys(SA.Pam)-KuE-617 (371 μl, 1 mg/ml, 250 nmol) with LuCl3 (129 μl, 1 mg/ml, 375 nmol, metal to labeling precursor ratio 1.5:1) in 1 M ammonium acetate buffer at 95° C. for 2 hours. Complex formation is monitored by ESI-LC/MS.
PSMA binding affinity is determined by the competitive radioligand assay described by Benešová et al. (Benešová, M.; Schaefer, M.; Bauder-Wüst, U.; Afshar-Oromieh, A.; Kratochwil, C.; Mier, W.; Haberkorn, U.; Kopka, K.; Eder, M. Preclinical Evaluation of a Tailor-Made DOTA-Conjugated PSMA Inhibitor with Optimized Linker Moiety for Imaging and Endoradiotherapy of Prostate Cancer. J. Nucl. Med. 2015, 56 (6), 914-920.). For this purpose, PSMA-positive LNCaP cells from Sigma-Aldrich in RPMI 1640 (Thermo Fisher Scientific) supplemented with 10% fetal bovine serum (Thermo Fisher Scientific), 100 μg/ml streptomycin and 100 units/ml penicillin are cultured at 37° C. in 5% CO2. The LNCaP cells are incubated with increasing concentrations of solutions containing the labeling precursors in the presence of 0.75 nM [^68Ga]Ga-PSMA-10 for 45 min. Free radioactivity is removed by several washes with ice-cold PBS. The samples obtained are measured in a y counter (2480 WIZARD2 Automatic Gamma Counter, PerkinElmer). The measurement data are evaluated in GraphPad Prism 9 using non-linear regression.

[5] = adsorption isotherms on hydroxyapatite by the method of Langmuir and Freundlich; format: binding; details: Langmuir-Freundlich
Protocol: For this purpose, the adsorption therms are determined by the method of Langmuir and Freundlich.
For comparison, schemes 23 and 24 show conjugates of the chelator NODAGA with squaric acid pamidronate (NODAGA.QS.Pam) and NODAGA with zoledronate (NODAGA.Zol), and also the respective coefficients of adsorption KLF, measured by the method of Langmuir and Freundlich.

[6] = LNCaP cells, 0.75 nM [68Ga]Ga-PSMA-10, 45 min, read-out: PSMA Ki

T1 sequence (Q04609 whole entry): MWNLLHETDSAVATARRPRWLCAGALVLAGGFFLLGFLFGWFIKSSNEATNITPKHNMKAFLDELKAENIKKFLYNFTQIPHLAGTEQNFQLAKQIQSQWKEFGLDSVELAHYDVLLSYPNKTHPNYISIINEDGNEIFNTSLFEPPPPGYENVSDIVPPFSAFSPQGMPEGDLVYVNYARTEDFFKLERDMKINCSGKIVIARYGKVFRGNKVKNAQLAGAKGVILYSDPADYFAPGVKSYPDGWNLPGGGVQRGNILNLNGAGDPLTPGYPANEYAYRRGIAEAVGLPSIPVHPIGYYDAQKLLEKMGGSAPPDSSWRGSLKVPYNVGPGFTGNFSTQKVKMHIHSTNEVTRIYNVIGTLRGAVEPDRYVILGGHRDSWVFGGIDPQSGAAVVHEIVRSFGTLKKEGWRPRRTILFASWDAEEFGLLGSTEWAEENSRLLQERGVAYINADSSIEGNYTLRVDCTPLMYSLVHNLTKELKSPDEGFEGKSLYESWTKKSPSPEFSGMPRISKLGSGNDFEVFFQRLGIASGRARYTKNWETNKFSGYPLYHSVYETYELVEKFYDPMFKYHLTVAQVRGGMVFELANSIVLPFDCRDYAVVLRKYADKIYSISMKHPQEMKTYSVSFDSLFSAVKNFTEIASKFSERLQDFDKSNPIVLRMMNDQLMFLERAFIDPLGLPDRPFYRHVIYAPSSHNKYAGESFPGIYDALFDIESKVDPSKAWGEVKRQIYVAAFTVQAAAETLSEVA

NCCN1CCN(CC(=O)O)CCN(C(CCC(=O)NCCNc2c(NCCCCC(NC(=O)NC(CCC(=O)O)C(=O)O)C(=O)O)c(=O)c2=O)C(=O)O)CCN(CC(=O)O)CC1 (stereo not drawn) [NH2.DOTAGA.QS.KuE]
IC50 [1]: 20.2 ± 3.5 nM

[^177Lu]Lu-PSMA-617
proportion bound to HAP [2]: 1.2% | LogD7,4 (n-octanol/PBS) [3]: −2.2 ± 0.20

O=C(O)CCC(NC(=O)NC(CCCCNC(=O)C(Cc1ccc2ccccc2c1)NC(=O)C1CCC(CNC(=O)C(CCCCNc2c(NCCC(O)(P(=O)(O)O)P(=O)(O)O)c(=O)c2=O)NC(=O)CN2CCN(CC(=O)O)CCN(CC(=O)O)CCN(CC(=O)O)CC2)CC1)C(=O)O)C(=O)O [DOTA.L-Lys(SA.Pam)KuE-617]
Ki [4]: 53 ± 4 nM

NCCCCC(NC(=O)CN1CCN(CC(=O)O)CCN(CC(=O)O)CCN(CC(=O)O)CC1)C(=O)NCC1CCC(C(=O)NC(Cc2ccc3ccccc3c2)C(=O)NCCCCC(NC(=O)NC(CCC(=O)O)C(=O)O)C(=O)O)CC1 [DOTA.L-Lys.KuE-617]
Ki [4, 6]: 20 ± 3 nM

O=C(O)CCC(NC(=O)NC(CCCCNC(=O)C(Cc1ccc2ccccc2c1)NC(=O)C1CCC(CNC(=O)CCC(C(=O)O)N2CCN(CC(=O)O)CCN(CCNc3c(NCCC(O)(P(=O)(O)O)P(=O)(O)O)c(=O)c3=O)CCN(CC(=O)O)CC2)CC1)C(=O)O)C(=O)O (stereo not drawn) [Pam.SA.DOTAGA.KuE-617]
IC50 [1]: 49.8 ± 10 nM

O=C(O)CN1CCN(CC(=O)O)CCN(C(CCC(=O)NCCNc2c(NCCC(O)(P(=O)(O)O)P(=O)(O)O)c(=O)c2=O)C(=O)O)CC1 (stereo not drawn) [NODAGA.QS.Pam]
coefficient of adsorption KLF compared with NODAGA.Zol [5]: about three times greater

O=C(O)CCC(NC(=O)NC(CCCCNC(=O)C(Cc1ccc2ccccc2c1)NC(=O)C1CCC(CNC(=O)CN2CCN(CC(=O)O)CCN(CC(=O)O)CCN(CC(=O)O)CC2)CC1)C(=O)O)C(=O)O (stereo not drawn) [PSMA-617, reference compound]
Ki [4, 6]: 7 ± 1 nM

NCCN1CCN(CC(=O)O)CCN(C(CCC(=O)NCC2CCC(C(=O)NC(Cc3ccc4ccccc4c3)C(=O)NCCCCC(NC(=O)NC(CCC(=O)O)C(=O)O)C(=O)O)CC2)C(=O)O)CCN(CC(=O)O)CC1 (stereo not drawn) [NH2.DOTAGA.KuE-617]
IC50 [1]: 20.6 ± 3.4 nM
